For assay [1], the system named is Immunologically Stimulated Human Basophils. The assay can be described thus: Inhibition of histamine release from immunologically stimulated human basophils. Type of assay: cell-based. The note with it: 1 h; human basophils challenged with anti-IgE or antigen, 60 minutes at 37° C.; linear regression; active if ED50 ≤48 μM; read-out: ED50 (concentration which causes a 50% inhibition of histamine release). How it is done:
The novel compounds of this invention have been tested by the procedure of Lichtenstein, L. M. and Osler, A. G., J. Exp. Med., 120, 507-530 (1964), which evaluates the ability of compounds to inhibit mediator (histamine) release from immunologically stimulated human basophils.
Dissolve 140.3 g of sodium chloride, 7.45 g of potassium chloride and 74.5 g of Trizma-Tris Pre-Set, Reagent Grade, pH 7.6, at 25° C. (Sigma Chemical Co.) in sufficient water to give a final volume of 2 liters.
(Sigma Chemical Co.) (30 mg/ml)
Made to 0.75M and 0.5M respectively, with calcium chloride dihydrate and magnesium chloride hexahydrate.
A 10 ml portion of 10X Tris Buffer and 1.0 ml of human albumin are diluted to 100 ml with water.
A 10 ml portion of 10X Tris Buffer, 1.0 ml of human albumin, 0.8 ml of calcium stock and 0.2 ml of magnesium stock are diluted to 100 ml with water.
Behring Diagnostics (Generally used at 10 μg protein/ml final concentration).
Strength 1:100 (w:v) allergenic extract, Hollister-Stier Labs. Generally this is diluted 1:1000 to 1:10,000 (considering the vial as stock).
Intradermal solutions or intramuscular preparations for hyposensitization, Hollister-Stier Labs. The final concentration used is on the order of 1 PNU/ml.
Eighty milliliters of blood is withdrawn from subjects with known histamine release to anti-Ige, rageweed antigen or other specific alergen, using four 20 ml heparainized tubes. This 80 ml of blood is mixed with 20 ml of saline containing 0.6 g of dextrose and 1.2 g of dextran. The blood is allowed to sediment at room temperature in two 50 ml polycarbonate centrifuge tubes until a sharp interface develops between the red cells and plasma (60-90 minutes). The plasma (top) layer from each tube is with-drawn by pipet and transferred to respective 50 ml polycarbonate tubes. The plasma is centrifuged for 8 minutes at 100×G at […]. The supernatant is carefully poured off as completely as possible and the cell button is resuspended in 2-3 ml of Tris-A buffer using a silconized Pasteur pipet. The resuspension is accomplished by drawing the liquid gently in an out of the pipet, with the tip below the liquid, until and even suspension of cells is obtained. Sufficient Tris-A buffer is then added to bring the volume in the tube to about 45 ml and the tube is centrifuged at 110×G for 8 minutes at 4° C. The supernatant is poured off and the cell button is resuspended and centrifuged as described above. The supernatant is poured off and the cell button suspended in 2-3 ml of Tris-ACM buffer to make the final volume sufficient to allow addition to the reaction tubes.
Reaction tubes containing anti-IgE or antigens, either alone or with test compound in a total volume of 0.2 ml are prepared and placed in a 37° C. bath. […]

The target in the next assay is T1, Neutrophil Lipoxygenase (Cavia porcellus, UniProt A0A286X958).
T1 construct: endogenous in cells; host or cells: guinea pig peritoneal neutrophils
T1 sequence (A0A286X958 1-674): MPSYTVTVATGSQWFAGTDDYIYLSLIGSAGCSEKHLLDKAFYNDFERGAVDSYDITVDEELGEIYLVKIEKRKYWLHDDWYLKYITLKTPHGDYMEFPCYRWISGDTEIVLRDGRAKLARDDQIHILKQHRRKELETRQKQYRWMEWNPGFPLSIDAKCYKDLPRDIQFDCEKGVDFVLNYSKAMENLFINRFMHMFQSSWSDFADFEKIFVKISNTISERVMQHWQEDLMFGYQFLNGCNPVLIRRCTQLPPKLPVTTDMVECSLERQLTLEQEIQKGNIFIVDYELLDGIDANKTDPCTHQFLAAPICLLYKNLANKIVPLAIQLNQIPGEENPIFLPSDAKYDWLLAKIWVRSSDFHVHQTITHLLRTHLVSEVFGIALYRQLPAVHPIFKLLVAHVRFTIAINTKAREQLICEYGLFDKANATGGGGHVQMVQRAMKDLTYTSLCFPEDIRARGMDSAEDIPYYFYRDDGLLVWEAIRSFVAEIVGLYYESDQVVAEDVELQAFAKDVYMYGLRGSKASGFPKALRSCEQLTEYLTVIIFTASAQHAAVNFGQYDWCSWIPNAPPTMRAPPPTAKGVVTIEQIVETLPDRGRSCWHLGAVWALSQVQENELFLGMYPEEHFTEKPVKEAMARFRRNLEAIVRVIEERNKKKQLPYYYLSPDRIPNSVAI
The assay can be described thus: Inhibition of neutrophil lipoxygenase (release and biosynthesis of LTB4 and 5-HETE) in guinea pig peritoneal neutrophils. Type of assay: cell-based. The note with it: 10 μg/ml, 100 μM arachidonic acid and 20 μM A23187, the lower the percentage, the more active. How it is done:
The ability of these compounds to inhibit lipoxygenase activity in terms of the suppression of the release and biosynthesis of leukotriene B4 (LTB4) and 5-hydroxyeicosatetraenoic acid (5-HETE) was measured as follows.
In this assay 3×10^7 peritoneal neutrophils derived from guinea pigs were incubated at 37° C. in Dulbeccos buffer containing 50 mM tris buffer (pH 7.4). Five minutes before the addition of 100 μM arachidonic acid and 20 μM calcium ionophore (A23187), control vehicle or the test compounds were added to the neutrophils at a concentration of 10 μg/ml.
Three minutes after the addition of arachidonic acid and calcium ionophore the total lipid was partitioned into chloroform after adjusting the pH to 3 with citric acid and the addition of equal parts of methanol and chloro-form.
The 5-HETE and LTB4 were resolved by HPLC using a 5 μM, 4×25 cm octadecyl silica solumn (IBM Instruments) with 70-80% methanol in water adjusted to pH 3.0 with acetic acid. As the mobile phase was pumped at 1.0 ml/minute, LTB4 and 5-HETE were detected by absorbance at 270 and 236 nm, respectively.
LTB4 and 5-HETE were quantitated by comparison with the control and results were expressed as a percent of control.

Where two headings read alike, the source gives them in different places.

Regarding `CCOC(=O)N1CCN(C2=C(Cl)C(=O)c3nsnc3C2=O)CC1` [4-(6-Chloro-4,7-dihydro-4,7-dioxo-2,1,3-benzothiadiazol-5-yl)-1-piperazinecarboxylic acid, ethyl ester], the IC50 in assay [1] was determined as 1 µM. The remaining activity at 10 µg/mL on Neutrophil Lipoxygenase (read-out: 5-HETE, % of Control) stood at 40.5%; at Neutrophil Lipoxygenase (read-out: LTB4, % of Control), 39.3%.

As to `COc1ccc(OC)c2[nH]c(-c3ccc(Cl)cc3)nc12` [2-(4-Chlorophenyl)-4,7-dimethoxy-1H-benzimidazole], the remaining activity at 10 µg/mL came to 77% at Neutrophil Lipoxygenase (read-out: 5-HETE, % of Control) and 87% on Neutrophil Lipoxygenase (read-out: LTB4, % of Control).

For the compound `Oc1ccc(O)c2[nH]c(-c3ccccc3)nc12` [2-Phenyl-1 --H--benzimidazole-4,7-diol, 2-Phenyl-1H-benzimidazole-4,7-diol], the remaining activity at 10 µg/mL on Neutrophil Lipoxygenase (read-out: 5-HETE, % of Control) was found to be 32.1%; on Neutrophil Lipoxygenase (read-out: LTB4, % of Control), 33.9%.

On to `O=CN1CCN(C2=C(Cl)C(=O)c3nsnc3C2=O)CC1` [4-(6-Chloro-4,7-dihydro-4,7-dioxo-2,1,3-benzothiadiazol-5-yl)-1-piperazinecarboxaldehyde], for which the remaining activity at 10 µg/mL at Neutrophil Lipoxygenase (read-out: 5-HETE, % of Control) is 64%; on Neutrophil Lipoxygenase (read-out: LTB4, % of Control) it was 90.8%.

In the case of `O=C1C(Cl)=C(N2CCN(c3nc4ccccc4o3)CC2)C(=O)c2nsnc21` [5-[4-(2-Benzoxazolyl)-1-piperazinyl]-6-chloro-2,1,3-benzothiadiazole-4,7-dione], the remaining activity at 10 µg/mL on Neutrophil Lipoxygenase (read-out: 5-HETE, % of Control) worked out at 20.8%; on Neutrophil Lipoxygenase (read-out: LTB4, % of Control), 25.8%.

On to `O=C1C=CC(=O)c2[nH]c(-c3ccc(Cl)cc3)nc21` [2-(4-Chlorophenyl)-1H-benzimidazole-4,7-dione], for which the IC50 in assay [1] was found to be 6.8 µM.

For the compound `O=C1C(Cl)=C(N2CCN(c3cccc(C(F)(F)F)c3)CC2)C(=O)c2nsnc21` [5-Chloro-6-6[4-[3-(trifluoromethyl)phenyl]-1-piperazinyl]-2,1,3-benzothiadiazole-4,7-dione], the IC50 in assay [1] was 9.1 µM. The remaining activity at 10 µg/mL at Neutrophil Lipoxygenase (read-out: 5-HETE, % of Control) stood at 15.2%; at Neutrophil Lipoxygenase (read-out: LTB4, % of Control) it was 14.6%.

On to `COc1ccc(OC)c2[nH]c(-c3ccccc3)nc12` [4,7-Dimethoxy-2-phenyl-1H-benzimidazole], for which the remaining activity at 10 µg/mL on Neutrophil Lipoxygenase (read-out: 5-HETE, % of Control) came out at 78.2%; at Neutrophil Lipoxygenase (read-out: LTB4, % of Control), 8%.

Regarding `Oc1ccc(O)c2[nH]c(-c3ccc(Cl)cc3)nc12` [2-(4-Chlorophenyl)-1H-benzimidazole-4,7-diol], the IC50 in assay [1] was 9.7 µM.

Values taken from patent US4808586A, “Substituted benzimidazoles and benzothidiazoles having anti-asthmatic and/or anti-inflammatory activities” (American Cyanamid Company, priority 1987, dated 1989).
